What was measured:
APP/PS1 model mice = assay: Western blot analysis of cortex and hippocampus of APP/PS1 model mice; type: in vivo
Experimental: Male C57BL/6J wild type mice and double transgenic B6.Cg-Tg (APPswe, PSENdE9) 85Dbo Mmjax (APP/PS1) AD-model mice were obtained from Jackson Laboratories (Bar Harbor, Me., USA). The brains of the double transfected mice express Swedish mutation-containing chimeric mouse-human amyloid precursor protein (Mo/HuAPP695swe) and mutant human presenilin 1 protein (PS1-dE9). The mice were fed with an unlimited supply of food and water at an animal breeding ground of a university at a temperature of 23° C., at the relative humidity of 60±10% and in the black and light cycle of 12 h/12 h. […] The maintenance and treatment for mice were performed according to the guidelines of the Animal Ethics Committee (IACUC) issued by Department of Biology, Division of Applied Life Science of Gyeongsang National University in Korea. Experiments according to the present disclosure were conducted according to the guidelines approved by the guidelines of the Animal Ethics Committee (IACUC) issued by Department of Biology, Division of Applied Life Science of Gyeongsang National University in Korea (approval ID: 125).
The novel peptide according to the present disclosure was dissolved in bi-deionized distilled water, and administered while being finally included in physiological saline. The novel peptide according to the present disclosure was intraperitoneal injection (IP) administered to APP/PS1 and wild-type (WT) mice in a dose of 5 mg/kg/day at an interval of 2.5 days for 30 days to 45 days. Wild-type mice and APP/PS1 transfected mice were treated with the same volume of physiological saline, and after behavioral analysis, the animal models were sacrificed for further biochemical and immunohistochemical analysis.
Protein concentrations were measured by using a BIORAD protein assay kit (BIORAD LABORATORIES, CA, USA). Equal amounts of protein (15 to 25 μg) were electrophoresed under the same experimental conditions using 4 to 12% BLOT™ minigel and MES SDS electrophoresis buffer (running buffer) 1×(NOVEX, LIFE TECHNOLOGIES, Kiryat Shmona, Israel), and a broad range prestained protein marker (GANGNAM STAIN™, Intron Biotechnology) was used as the control for the molecular size. To reduce nonspecific binding, the membranes used were blocked with 5% (w/v) skim milk and reacted with a primary antibody (a 1:1000 dilution) overnight at 4° C. After an appropriate reaction with a horseradish peroxidase (HRP)-binding secondary antibody, proteins were detected by using an ECL detection reagent (AMERSHAM PHARMECIA BIOTECH, Uppsala, Sweden) according to the manufacturer's instructions. The X-ray film was scanned and the optical density of the band was analyzed using a densitometry using a computer-based Sigma Gel program, version 1.0 (SPSS, Chicago, Ill., USA).
For use as the primary antibody, anti-amyloid β (Aβ), anti-APP, anti-AdipoR1 (Adiponectin receptor 1), anti-phospho-AMPK, anti-SNAP-25 (Synaptosomal-Associated Protein 25), anti-SAP-102, anti-Syanpatophysin, phospho-Tau (Ser 413), anti-p-mTOR, anti-p-ULK1, and anti-β-actin were used.

[1] = test system: primary hippocampus neurons; assay: In vitro electrophysiological analysis (AMPAR-mediated mEPSCs); type: cell-based, Sprague-Dawley rats; conditions: compared to the Aβ group, various concentrations
Experimental: Primary hippocampus neurons isolated from E19 Sprague-Dawley rats were cultured to a density of 150 cells/mm^2. AMPA receptor (AMPAR)-mediated miniature excitatory postsynaptic currents (mEPSCs) were recorded by using conventional whole-cell techniques. When primary hippocampus neurons were filled with an internal solution, the electrode resistance was varied from 3 MΩ to 5 MΩ.
The inventors of the present specification performed current measurements by using an Axopatch 200A patch-clamp amplifier (Molecular Devices, Sunnyvale, Calif.).
The voltage of the membrane and the voltage of current, commands, and digitization were adjusted by using Digidata 1322A connected to Clampex 9.2 (Molecular Devices, Sunnyvale, Calif.) of the pClamp software package on an IBM-compatible computer. The inventors of the present specification analyzed data by using Clampfit (Molecular Devices, Sunnyvale, Calif.) and Prism 4.0 (GraphPad, San Diego, Calif.). The current was low-pass filtered at 2 kHz by using an amplifiers four-pole Bessel filter. […]
The cumulative probability curve of mEPSCs was calculated by using Clampfit 9.0 software and Prism 4.0 (GraphPad, San Diego, Calif.). […]

[2] = hippocampus of APP/PS1 mice, 9 months and 12 months
[3] = hippocampus, 9 months and 12 months
[4] = hippocampus, 9 months and 12 months after treatment

Substance: RGPCG (adiponectin receptor-activating peptide) [5AA1]
- expression of p-ULK1 protein (APP/PS1 model mice; APP/PS1 mice): suppression of the expression
- expression of p-mTOR protein (APP/PS1 model mice; APP/PS1 mice): suppression of the expression
- APP in the cortex (APP/PS1 model mice; cortex of APP/PS1 mice): statistically significantly reduced
- amyloid-β oligomer (Aβ oligomer) in the cortex (APP/PS1 model mice; cortex of APP/PS1 mice): statistically significantly reduced
- expression level of p-Tau (Ser404) (APP/PS1 model mice; hippocampus of APP/PS1 mice): remarkably decreased levels
- expression level of p-Tau (Ser413) (APP/PS1 model mice; hippocampus of APP/PS1 mice): remarkably decreased levels
- expression level of AdipoR1 (APP/PS1 model mice; [2]): remarkably increased levels
- expression level of SIRT-1 (APP/PS1 model mice; [2]): remarkably increased levels
- expression level of pAMPK (APP/PS1 model mice; [2]): remarkably increased levels
- expression level of AAP in the hippocampus (APP/PS1 model mice; [3]): decreased
- expression level of Aβ in the hippocampus (APP/PS1 model mice; [3]): decreased
- expression level of SAP-102 (APP/PS1 model mice; [4]): remarkably increased levels
- expression level of SNAP-25 (APP/PS1 model mice; [4]): remarkably increased levels
- expression level of Synaptophysin (APP/PS1 model mice; [4]): remarkably increased levels
- mEPSC frequency [1]: statistically significantly increased
